Species on record: Rattus norvegicus
Experiment: DrugMatrix - Regimen: Daily Repeat
Type: toxicity, organism-based, Sprague-Dawley
Parameters: regimen Daily Repeat, gender Male, age 6-8 weeks
Details: in vivo, po, route oral GAVAGE; for ALBUMIN / ALKALINE PHOSPHATASE / ASPARTATE AMINOTRANSFERASE / BLOOD UREA NITROGEN / CARBON DIOXIDE / CHLORIDE / CHOLESTEROL / CREATINE PHOSPHOKINASE / CREATININE / GLUCOSE / LACTATE DEHYDROGENASE / LIPASE / PHOSPHORUS / POTASSIUM / SODIUM / TOTAL BILIRUBIN / TOTAL PROTEIN / URIC ACID / ALANINE AMINOTRANSFERASE: tissue Plasma; for ABSOLUTE BASOPHIL / ABSOLUTE EOSINOPHIL / ABSOLUTE LYMPHOCYTE / ABSOLUTE MONOCYTE / ABSOLUTE SEGMENTED NEUTROPHIL / BASOPHIL / EOSINOPHIL / ERYTHROCYTE COUNT / HEMATOCRIT / HEMOGLOBIN / LEUKOCYTE COUNT / LYMPHOCYTE / MEAN CORPUSCULAR HEMOGLOBIN / MEAN CORPUSCULAR HEMOGLOBIN CONCENTRATION / MEAN CORPUSCULAR VOLUME / MONOCYTE / NEUTROPHIL / NUCLEATED RED BLOOD CELLS / PLATELET COUNT: tissue Blood
[1] = 54 mg/kg, 120 h, dose level M1, time 5 day, vehicle 100 % WATER
[2] = 160 mg/kg, 72 h, dose level High, time 3 day, […]
[3] = 160 mg/kg, 120 h, dose level High, time 5 day, […]

Cn1cnc([N+](=O)[O-])c1Sc1ncnc2nc[nH]c12 [AZATHIOPRINE]
ALBUMIN [1]: 4.6 G/DL
ALKALINE PHOSPHATASE [1]: 184.33 u/L
ASPARTATE AMINOTRANSFERASE [1]: 65.33 u/L
BLOOD UREA NITROGEN [1]: 14 mg/dL
CARBON DIOXIDE [1]: 33 mmol/L
CHLORIDE [1]: 96.33 MEQ/L
CHOLESTEROL [1]: 91.33 mg/dL
CREATINE PHOSPHOKINASE [1]: 188.33 u/L
CREATININE [1]: 0.26 mg/dL
GLUCOSE [1]: 159.67 mg/dL
LACTATE DEHYDROGENASE [1]: 98.33 u/L
LIPASE [1]: 14 u/L
PHOSPHORUS [1]: 9.43 mg/dL
POTASSIUM [1]: 5.71 MEQ/L
SODIUM [1]: 143.23 MEQ/L
TOTAL BILIRUBIN [1]: 0.13 mg/dL
TOTAL PROTEIN [1]: 6.97 G/DL
URIC ACID [1]: 0.23 mg/dL
ABSOLUTE BASOPHIL [2]: 0 CELLS/uL
ABSOLUTE EOSINOPHIL [2]: 0 CELLS/uL
ABSOLUTE LYMPHOCYTE [2]: 4093.67 CELLS/uL
ABSOLUTE MONOCYTE [2]: 37.33 CELLS/uL
ABSOLUTE SEGMENTED NEUTROPHIL [2]: 535.67 CELLS/uL
BASOPHIL [2]: 0%
EOSINOPHIL [2]: 0%
ERYTHROCYTE COUNT [2]: 5.12 x10E6/uL
HEMATOCRIT [2]: 34.5%
HEMOGLOBIN [2]: 13.07 G/DL
LEUKOCYTE COUNT [2]: 4.67 x10E3/uL
LYMPHOCYTE [2]: 87%
MEAN CORPUSCULAR HEMOGLOBIN [2]: 25.6 pg
MEAN CORPUSCULAR HEMOGLOBIN CONCENTRATION [2]: 37.87 G/DL
MEAN CORPUSCULAR VOLUME [2]: 67.47 fL
MONOCYTE [2]: 0.67%
NEUTROPHIL [2]: 12.33%
NUCLEATED RED BLOOD CELLS [2]: 0 /100WBC
PLATELET COUNT [2]: 1028 x10E3/uL
ALANINE AMINOTRANSFERASE [2]: 39.33 u/L
ALBUMIN [2]: 3.87 G/DL
ALKALINE PHOSPHATASE [2]: 207.67 u/L
ASPARTATE AMINOTRANSFERASE [2]: 81.33 u/L
BLOOD UREA NITROGEN [2]: 10.33 mg/dL
CARBON DIOXIDE [2]: 36 mmol/L
CHLORIDE [2]: 107.67 MEQ/L
CHOLESTEROL [2]: 84.67 mg/dL
CREATINE PHOSPHOKINASE [2]: 296.67 u/L
CREATININE [2]: 0.13 mg/dL
GLUCOSE [2]: 192.33 mg/dL
LACTATE DEHYDROGENASE [2]: 87.67 u/L
LIPASE [2]: 11.33 u/L
PHOSPHORUS [2]: 7.6 mg/dL
POTASSIUM [2]: 5.08 MEQ/L
SODIUM [2]: 138.17 MEQ/L
TOTAL BILIRUBIN [2]: 0.13 mg/dL
TOTAL PROTEIN [2]: 5.63 G/DL
URIC ACID [2]: 0.3 mg/dL
ABSOLUTE BASOPHIL [3]: 0 CELLS/uL
ABSOLUTE EOSINOPHIL [3]: 0 CELLS/uL
ABSOLUTE LYMPHOCYTE [3]: 1710 CELLS/uL
ABSOLUTE MONOCYTE [3]: 38 CELLS/uL
ABSOLUTE SEGMENTED NEUTROPHIL [3]: 152 CELLS/uL
BASOPHIL [3]: 0%
EOSINOPHIL [3]: 0%
ERYTHROCYTE COUNT [3]: 7.48 x10E6/uL
HEMATOCRIT [3]: 45.7%
HEMOGLOBIN [3]: 15.7 G/DL
LEUKOCYTE COUNT [3]: 1.9 x10E3/uL
LYMPHOCYTE [3]: 90%
MEAN CORPUSCULAR HEMOGLOBIN [3]: 21 pg
MEAN CORPUSCULAR HEMOGLOBIN CONCENTRATION [3]: 34.4 G/DL
MEAN CORPUSCULAR VOLUME [3]: 61.1 fL
MONOCYTE [3]: 2%
NEUTROPHIL [3]: 8%
NUCLEATED RED BLOOD CELLS [3]: 0 /100WBC
PLATELET COUNT [3]: 666 x10E3/uL
ALANINE AMINOTRANSFERASE [3]: 237 u/L
ALBUMIN [3]: 2.8 G/DL
ALKALINE PHOSPHATASE [3]: 281 u/L
ASPARTATE AMINOTRANSFERASE [3]: 835 u/L
BLOOD UREA NITROGEN [3]: 15 mg/dL
CARBON DIOXIDE [3]: 36 mmol/L
CHLORIDE [3]: 106 MEQ/L
CHOLESTEROL [3]: 13 mg/dL
CREATINE PHOSPHOKINASE [3]: 348 u/L
CREATININE [3]: 0.38 mg/dL
GLUCOSE [3]: 192 mg/dL
LACTATE DEHYDROGENASE [3]: 280 u/L
LIPASE [3]: 10 u/L
PHOSPHORUS [3]: 6.3 mg/dL
POTASSIUM [3]: 4.73 MEQ/L
SODIUM [3]: 147 MEQ/L
TOTAL BILIRUBIN [3]: 0.2 mg/dL
TOTAL PROTEIN [3]: 3.4 G/DL
URIC ACID [3]: 0.2 mg/dL

From ChEMBL document CHEMBL3885881, “DrugMatrix”
